Test results published in patent US11524960B2, “Heterobicyclic inhibitors of MAT2A and methods of use for treating cancer” (AGIOS PHARMACEUTICALS, INC., priority 2018, dated 2022).

Columns and labels:
[1] = system: SAM in HCT116 human colon carcinoma cell line engineered to delete the MTAP gene (MTAP −/−); test: Cellular assay of target engagement (SAM) by LC-MS/MS; type: cell-based; conditions: Homo sapiens, HCT-116, 72 h, IC50 score, read-out: Cell 72 h SAM Inhibition (MTAP −/−; Example 276)
Outline: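 MTAP-deleted HCT116 cells were dosed 24 h after plating with a 10-point 3-fold compound series in DMSO, then incubated 72 h at 37 °C/5% CO2. Cells were extracted in cold 80% methanol with acetic acid and d3-SAM internal standard. SAM was quantified by LC-MS/MS MRM (m/z 399.2→250.1).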

HCT116 MTAP−/− = test: Inhibition of cellular proliferation (Cell Titer Glo), HCT116 MTAP−/−; type: cell-based, human; conditions: Homo sapiens, HCT-116, 96 h, 4 days, IC50 score, read-out: 4 Day Relative Growth Inhibition (MTAP −/−; Example 277)
Outline: (§1)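 Isogenic HCT116 lines, MTAP+/+ and MTAP−/−, treated 24 h after plating with 10-point 3-fold compound dilutions including DMSO only, then grown 4 days at 37 °C/5% CO2. Cell Titer Glo ATP luminescence, blank-subtracted and normalised to 0.2% DMSO control, gave percent change in proliferation versus log concentration.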

MAT2A homodimer = target: T1, MAT2A homodimer (Homo sapiens, UniProt P31153); test: Biochemical assay: inhibition of MAT2A (phosphate release, PiColorLock Gold); conditions: MAT2A IC50 score; read-out: Enzyme Inhibition (Example 275)
T1 construct: inferred from Ni sepharose purification and imidazole elution; made in house; host or cells: Sf9 insect cells, recombinant baculovirus (Bac to Bac, pFASTBAC1)
T1 sequence (P31153 whole entry): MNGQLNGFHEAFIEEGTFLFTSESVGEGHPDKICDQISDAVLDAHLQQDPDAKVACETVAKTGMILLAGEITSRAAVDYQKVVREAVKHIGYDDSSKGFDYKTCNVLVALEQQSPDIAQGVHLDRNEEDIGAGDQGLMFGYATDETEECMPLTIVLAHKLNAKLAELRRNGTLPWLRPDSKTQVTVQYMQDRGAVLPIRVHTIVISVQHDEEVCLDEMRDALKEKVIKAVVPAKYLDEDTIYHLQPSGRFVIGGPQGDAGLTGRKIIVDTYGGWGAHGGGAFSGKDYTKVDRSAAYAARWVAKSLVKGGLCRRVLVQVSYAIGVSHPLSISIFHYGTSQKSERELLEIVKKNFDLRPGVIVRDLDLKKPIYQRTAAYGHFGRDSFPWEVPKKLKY
Outline: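 Baculovirus/Sf9-expressed, Ni-purified MAT2A at 4 µg/mL was preincubated with compound for 60 min at 25 °C in 50 mM Tris pH 8.0, 50 mM KCl, 15 mM MgCl2, 0.3 mM EDTA, 0.005% BSA. Substrate mix (500 μM ATP, 400 μM L-methionine) was added and the reaction ran 60 min at 25 °C. Phosphate released stoichiometrically with SAM was measured colorimetrically against a phosphate standard curve.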

HCT116 MTAP+/+ = test: Inhibition of cellular proliferation (Cell Titer Glo), HCT116 MTAP+/+; type: cell-based, human; conditions: Homo sapiens, HCT-116, 96 h, 4 days, IC50 score, read-out: 4 Day Relative Growth Inhibition (MTAP +/+; Example 277)
Outline: as §1

Row | IC50 [1] [nM] | IC50 (HCT116 MTAP−/−) [nM] | IC50 (MAT2A homodimer) [nM] | IC50 (HCT116 MTAP+/+) [nM] | SMILES
1 | 100 to 1000 | 100 to 10000 | < 100 | > 10000 | COc1ccc(-n2cc3cnc(NCC(F)(F)F)nc3c(-c3ccc(-c4cc[nH]n4)cc3)c2=O)cc1 [Example 202, 8-(4-(H-pyrazol-3-yl)phenyl)-6-(4-methoxyphenyl)-2-((2,2,2-trifluoroethyl)amino)pyrido[4,3-d]pyrimidin-7(6H)-one]
2 | < 100 | < 100 | < 100 | 100 to 10000 | COc1ccc(-n2cc3ccc(NCC(F)(F)F)nc3c(-c3ccc(OC(F)F)cc3)c2=O)cc1 [Example 241, 8-(4-(difluoromethoxy)phenyl)-6-(4-methoxyphenyl)-2-(2,2,2-trifluoroethylamino)-1,6-naphthyridin-7(6H)-one]
3 | 100 to 1000 | 100 to 10000 | < 100 | > 10000 | O=c1c(-c2ccc(Cl)cc2)c2nc(NCC(F)(F)F)ncc2cn1-c1ccc2ncsc2c1 [Example 129, 6-(benzo[d]thiazol-6-yl)-8-(4-chlorophenyl)-2-(2,2,2-trifluoroethylamino)pyrido[4,3-d]pyrimidin-7(6H)-one]
4 | < 100 | 100 to 10000 | < 100 | 100 to 10000 | O=c1c(-c2ccc(OC(F)F)cc2)c2nc(NCC(F)(F)F)ncc2cn1-c1ccc2c(c1)OCCO2 [Example 178, 8-(4-(difluoromethoxy)phenyl)-6-(2,3-dihydrobenzo[b][1,4]dioxin-6-yl)-2-((2,2,2-trifluoroethyl)amino)pyrido[4,3-d]pyrimidin-7(6H)-one]
5 | < 100 | < 100 | < 100 | 100 to 10000 | CCOc1ccc2cn(-c3ccc4ncn(C)c4c3)c(=O)c(-c3ccc(Cl)cc3)c2n1 [Example 248, 8-(4-chlorophenyl)-2-ethoxy-6-(1-methyl-1H-benzo[d]imidazol-6-yl)-1,6-naphthyridin-7(6H)-one]
6 | < 100 | < 100 | < 100 | > 10000 | Cn1cc2cc(-n3cc4cnc(NCC(F)(F)F)nc4c(-c4ccc(C(F)(F)F)cc4)c3=O)ccc2n1 [Example 161, 6-(2-methyl-2H-indazol-5-yl)-2-((2,2,2-trifluoroethyl)amino)-8-(4-(trifluoromethyl)phenyl)pyrido[4,3-d]pyrimidin-7(6H)-one]
7 | 100 to 1000 | > 10000 | < 100 | > 10000 | O=c1c(-c2ccc(-c3cc[nH]n3)cc2)c2nc(NCC(F)(F)F)ncc2cn1-c1ccc2ncccc2c1 [Example 203, 8-(4-(H-pyrazol-3-yl)phenyl)-6-(quinolin-6-yl)-2-((2,2,2-trifluoroethyl)amino)pyrido[4,3-d]pyrimidin-7(6H)-one]
8 | < 100 | 100 to 10000 | < 100 | > 10000 | COc1ccc(-c2c(=O)n(-c3ccc4c(c3)OCCO4)cc3cnc(NCC(F)(F)F)nc23)cc1 [Example 177, 6-(2,3-dihydrobenzo[b][1,4]dioxin-6-yl)-8-(4-methoxyphenyl)-2-((2,2,2-trifluoroethyl)amino)pyrido[4,3-d]pyrimidin-7(6H)-one]
9 | < 100 | 100 to 10000 | < 100 | > 10000 | COc1ccc(-c2c(=O)n(-c3ccc4ncccc4c3)cc3cnc(NCC(F)(F)F)nc23)cc1 [Example 181, 8-(4-methoxyphenyl)-6-(quinolin-6-yl)-2-((2,2,2-trifluoroethyl)amino)pyrido[4,3-d]pyrimidin-7(6H)-one]
10 | 100 to 1000 | > 10000 | < 100 | > 10000 | CCOc1ccc2cn(-c3ccc4nn(C)cc4c3)c(=O)c(-c3ccc(-c4c[nH]cn4)cc3)c2n1 [Example 224, 8-(4-(1H-imidazol-4-yl)phenyl)-2-ethoxy-6-(2-methyl-2H-indazol-5-yl)-1,6-naphthyridin-7(6H)-one]
11 | < 100 | 100 to 10000 | < 100 | 100 to 10000 | COc1ccc(-n2cc3cnc(NCC(F)F)nc3c(-c3ccc(Br)cc3)c2=O)cc1 [Example 189, 8-(4-bromophenyl)-2-((2,2-difluoroethyl)amino)-6-(4-methoxyphenyl)pyrido[4,3-d]pyrimidin-7(6H)-one]
12 | < 100 | < 100 | < 100 | > 10000 | CCOc1ccc2cn(-c3ccc4ncccc4c3)c(=O)c(-c3ccc(OC(F)F)nc3)c2n1 [Example 232, 8-(6-(difluoromethoxy)pyridin-3-yl)-2-ethoxy-6-(quinolin-6-yl)-1,6-naphthyridin-7(6H)-one]

The remaining lines, values behind:

Row | SMILES | IC50 [1] [nM] | IC50 (HCT116 MTAP−/−) [nM] | IC50 (MAT2A homodimer) [nM] | IC50 (HCT116 MTAP+/+) [nM]
13 | Cn1cnc2ccc(-n3cc4ccc(OCC(F)(F)F)nc4c(-c4ccc(OC(F)F)nc4)c3=O)cc21 [Example 127-A] | 100 to 1000 | < 100 | < 100 | 100 to 10000
14 | O=c1c(-c2ccc(Cl)cc2)c2nc(NCC(F)(F)F)ncc2cn1-c1ccc2c(c1)CCO2 [Example 133, 8-(4-chlorophenyl)-6-(2,3-dihydrobenzofuran-5-yl)-2-(2,2,2-trifluoroethylamino)pyrido[4,3-d]pyrimidin-7(6H)-one] | < 100 | < 100 | < 100 | > 10000
15 | CCOc1ccc2cn(-c3ccc4ncccc4c3)c(=O)c(-c3ccc(OC(F)F)cc3)c2n1 [Example 230, 8-(4-(difluoromethoxy)phenyl)-2-ethoxy-6-(quinolin-6-yl)-1,6-naphthyridin-7(6H)-one] | < 100 | < 100 | < 100 | 100 to 10000
16 | Cn1cc2cc(-n3cc4cnc(NC5CC5)nc4c(-c4ccc(OC(F)F)cc4)c3=O)ccc2n1 [Example 172, 2-(cyclopropylamino)-8-(4-(difluoromethoxy)phenyl)-6-(2-methyl-2H-indazol-5-yl)pyrido[4,3-d]pyrimidin-7(6H)-one] | < 100 | < 100 | < 100 | > 10000
17 | O=c1c(-c2ccc(Br)cc2)c2nc(NCC(F)(F)F)ncc2cn1-c1ccc2ncccc2c1 [Example 180, 8-(4-bromophenyl)-6-(quinolin-6-yl)-2-((2,2,2-trifluoroethyl)amino)pyrido[4,3-d]pyrimidin-7(6H)-one] | < 100 | < 100 | < 100 | > 10000
18 | Cn1cc2cc(-n3cc4cnc(NCC(F)(F)F)nc4c(-c4ccc(OC(F)(F)F)cc4)c3=O)ccc2n1 [Example 160, 6-(2-methyl-2H-indazol-5-yl)-2-((2,2,2-trifluoroethyl)amino)-8-(4-(trifluoromethoxy)phenyl)pyrido[4,3-d]pyrimidin-7(6H)-one] | < 100 | < 100 | < 100 | > 10000
19 | Cn1cc2cc(-n3cc4ccc(OC5CC5)nc4c(-c4ccc(Cl)cc4)c3=O)ccc2n1 [Example 210, 8-(4-chlorophenyl)-2-cyclopropoxy-6-(2-methyl-2H-indazol-5-yl)-1,6-naphthyridin-7(6H)-one] | < 100 | < 100 | < 100 | > 10000
20 | Cn1cnc2ccc(-n3cc4ccc(OCC(F)(F)F)nc4c(-c4ccc(C(F)(F)F)nc4)c3=O)cc21 [Example 128-A] | < 100 | < 100 | < 100 | 100 to 10000
21 | CC(C)Nc1ncc2cn(-c3ccc4ncccc4c3)c(=O)c(-c3ccc(OC(F)F)cc3)c2n1 [Example 182, 8-(4-(difluoromethoxy)phenyl)-2-(isopropylamino)-6-(quinolin-6-yl)pyrido[4,3-d]pyrimidin-7(6)-one] | < 100 | 100 to 10000 | < 100 | > 10000
22 | COc1ccc(-c2c(=O)n(-c3ccc4nccn4c3)cc3cnc(NCC(F)(F)F)nc23)cc1 [Example 143, 6-(imidazo[1,2-a]pyridin-6-yl)-8-(4-methoxyphenyl)-2-((2,2,2-trifluoroethyl)amino)pyrido[4,3-d]pyrimidin-7(6H)-one] | 100 to 1000 | 100 to 10000 | < 100 | > 10000
23 | CCOc1ccc2cn(-c3ccc4nn(CCS(C)(=O)=O)cc4c3)c(=O)c(-c3ccc(OC(F)F)cc3)c2n1 [Example 108-A] | < 100 | < 100 | < 100 | 100 to 10000
24 | Cn1cnc2ccc(-n3cc4cnc(NCC(F)(F)F)nc4c(-c4ccc(OC(F)F)cc4)c3=O)cc21 [Example 151, 8-(4-(difluoromethoxy)phenyl)-6-(1-methyl-1H-benzo[d]imidazol-6-yl)-2-((2,2,2-trifluoroethyl)amino)pyrido[4,3-d]pyrimidin-7(6H)-one] | < 100 | < 100 | < 100 | 100 to 10000
25 | Cn1cc2cc(-n3cc4ccc(OCC(F)(F)F)nc4c(-c4ccc(C(F)(F)F)nc4)c3=O)ccc2n1 [Example 124-A] | < 100 | 100 to 10000 | < 100 | 100 to 10000
